{"source": "patent US20170071944A1", "about": "“MODULATORS OF TOLL-LIKE RECEPTORS FOR THE TREATMENT OF HIV” (Gilead Sciences, Inc., priority 2015, published 2017)", "type_in_all_cases": "cell-based, human", "key": {"[1]": {"tested_on": "HIV-1 expression in PBMC cultures from HIV-1 infected subjects on cART", "assay": "Induced HIV-1 expression in PBMC cultures from HIV-1 infected subjects on cART (HIV-1 RNA in culture supernatant, COBAS TaqMan)", "details": "for Fold HIV-1 Activation, Geometric Mean with ≧2-Fold-Activation / Fold HIV-1 Activation, Range with ≧2-Fold-Activation: N = 12 subjects", "protocol": "In some experiments, IL-15, the TLR8 modulating compound of Example 15 or the combination of IL-15 and Example 15 were used at the indicated concentrations (Table 4). The cultures were maintained in the presence of antivirals (elvitegravir and efavirenz at 100 nM each) to prevent viral spread and amplification in order to measure the quantity of virus produced (latency reversal) by the TLR8 modulating compounds. At the end of the incubation period, cell-free culture supernatants were harvested and HIV-1 RNA levels were quantified by the COBAS® AmpliPrep/COBAS®TaqMan HIV-1 Test, v2.0 (Roche).\nIn each table, fold-activation is calculated as a ratio of HIV-1 RNA copies per ml of cell culture supernatants from TLR8 agonist treated samples and DMSO treated controls. Geometric mean fold-activation from three independent incubation samples for each condition of each subject's PBMCs.\nTo assess if the latency reversal induced by TLR8 agonism could further potentiate latency reversal by a separate mechanisms, we treated cells as described above with IL-15, Example 15, or a combination of IL-15 and Example 15 (Table 4)."}, "[2]": {"tested_on": "HIV-infected CD4 T cells", "assay": "PGT121 antibody-mediated killing of HIV-infected CD4 T cells, PBMC effector model", "from_the_text": "(§1) NK cells and monocytes mediate antibody-dependent cellular cytotoxicity (ADCC) and antibody-dependent cellular phagocytosis (ADCP) respectively. To assess the ability of the compound of Example 15 to enhance ADCC and ADCP, two models were developed using monocytes or PBMCs as effector cells and HIV-infected CD4 T cells as target cells. PBMCs were isolated from 3 healthy subjects' leukaphereses (AllCells, participant IDs A4593, A4596, A4606), as described above. CD4 T cells were isolated from PBMCs using negative selection magnetic beads (EasySep, StemCell Technologies). CD4 T cells were spinfected with HIV-1 isolate 92HT593 (NIH AIDS Reagent Program) and cultured for 5 days at 37° C. For the PBMC model, autologous PBMCs were cultured for 5 days with vehicle control (DMSO) or Example 15 at 100 or 1000 nM. […] Marker staining was measured by flow cytometry using a LSR Fortessa (BD Biosciences) and analyzed with FlowJo software (TreeStar). The percent killing was determined by calculating the reduction of p24+ CD4+ T cells mediated by PGT121 antibody relative to a no antibody control.\n(§2) PBMCs (FIG. 3) or monocytes (FIG. 4) were treated with DMSO or TLR8 agonist for 5 days (FIG. 3) or 1 day (FIG. 4) and then co-cultured for 1 day with autologous HIV-infected CD4 T cells−/+anti-HIV Env antibody PGT121. Reductions in % p24+ CD4+ T cells, relative to no antibody control, were measured by FACS. […]"}, "[3]": {"tested_on": "HIV-infected CD4 T cells", "assay": "PGT121 antibody-mediated killing of HIV-infected CD4 T cells, monocyte effector model", "details": "monocytes from 1 subject, 11 or 33 nM, 1 day", "from_the_text": "as §1, §2"}, "[4]": {"details": "Example 15 1000 nM and/or IL-15 1 nM, subjects 205-210"}}, "note": "Where “and” joins values, the source holds several entries; their conditions need not be identical. Equal entries are not always repeated.", "data": [{"smiles": "CCCC[C@H](CO)Nc1nc(N)nc2cccnc12", "note": "[Example 15]", "values": [{"measurement": "Fold HIV-1 Activation, Geometric Mean with ≧2-Fold-Activation", "setting": "[1]; 10 nM", "result": 4.6, "unit": "fold"}, {"measurement": "Fold HIV-1 Activation, Range with ≧2-Fold-Activation", "setting": "[1]; 10 nM", "result": "2.2-20.1 fold"}, {"measurement": "N with ≧2-Fold-Activation (%)", "setting": "[1]; 10 nM, subjects 172-183", "result": "(42) %"}, {"measurement": "Fold HIV-1 Activation, Geometric Mean with ≧2-Fold-Activation", "setting": "[1]; 100 nM", "result": 4.8, "unit": "fold"}, {"measurement": "Fold HIV-1 Activation, Range with ≧2-Fold-Activation", "setting": "[1]; 100 nM", "result": "2.2-10.1 fold"}, {"measurement": "N with ≧2-Fold-Activation (%)", "setting": "[1]; 100 nM, subjects 172-183", "result": "(33) %"}, {"measurement": "Fold HIV-1 Activation, Geometric Mean with ≧2-Fold-Activation", "setting": "[1]; 1,000 nM", "result": 3.4, "unit": "fold"}, {"measurement": "Fold HIV-1 Activation, Range with ≧2-Fold-Activation", "setting": "[1]; 1,000 nM", "result": "2.4-5.7 fold"}, {"measurement": "N with ≧2-Fold-Activation (%)", "setting": "[1]; 1,000 nM, subjects 172-183", "result": "(58) %"}, {"measurement": "Fold HIV-1 Activation, Geometric Mean with ≧2-Fold-Activation", "setting": "[1]; 10, 100, or 1000 nM", "result": 4.4, "unit": "fold"}, {"measurement": "Fold HIV-1 Activation, Range with ≧2-Fold-Activation", "setting": "[1]; 10, 100, or 1000 nM", "result": "2.2-20.1 fold"}, {"measurement": "Fold HIV-1 Activation", "setting": "[1]; Example 15 10 nM, 4 days, individual subjects 172-183, vs DMSO", "result": "2.6 fold and 2.2 fold and 4.7 fold and 1.2 fold and 1.9 fold and 1.3 fold and 0.3 fold and 0.5 fold and 1.0 fold and 4.1 fold and 20.1 fold and 0.8 fold"}, {"measurement": "Fold HIV-1 Activation", "setting": "[1]; Example 15 100 nM, 4 days, individual subjects 172-183, vs DMSO", "result": "3.8 fold and 6.6 fold and 2.2 fold and 1.5 fold and 1.0 fold and 0.5 fold and 0.2 fold and 0.1 fold and 0.7 fold and 1.8 fold and 10.1 fold and 1.3 fold"}, {"measurement": "Fold HIV-1 Activation, Geometric Mean", "setting": "[1]; Example 15 1000 nM and/or IL-15 1 nM, N = 6 subjects", "result": 2.1, "unit": "fold"}, {"measurement": "Fold HIV-1 Activation", "setting": "[1]; Example 15 1000 nM and/or IL-15 1 nM, individual subjects 205-210, vs DMSO", "result": "4.7 fold and 0.8 fold and 9.7 fold and 2.0 fold and 1.9 fold and 0.6 fold"}, {"measurement": "N with ≧2-Fold-Activation", "setting": "[1]; [4]", "result": "3 of 6"}, {"measurement": "N with ≧2-Fold-Activation (%)", "setting": "[1]; [4]", "result": 50, "unit": "%"}, {"measurement": "Fold HIV-1 Activation", "setting": "[1]; Example 15 1,000 nM, 4 days, individual subjects 172-183, vs DMSO", "result": "2.7 fold and 2.4 fold and 3.3 fold and 1.2 fold and 4.7 fold and 0.3 fold (2×) and 3.4 fold and 3.0 fold and 1.3 fold and 1.6 fold and 5.7 fold"}, {"measurement": "PGT121-mediated killing of HIV-infected CD4+ T cells, geometric mean area under the curve (AUC)", "setting": "[2]; PBMCs from 3 subjects pre-treated 5 days at 100 nM, 108 for the DMSO control", "result": 172}, {"measurement": "Increase of AUC of PGT121-mediated killing compared to DMSO control", "setting": "[2]; PBMCs from 3 subjects, 100 nM", "result": 60, "unit": "%"}, {"measurement": "PGT121-mediated killing of HIV-infected CD4+ T cells compared to the DMSO control", "setting": "[3]", "result": "markedly enhanced"}]}]}
